System: LDL
Details: 10-fold molar excess of choline-phosphate, no SMase
Experimental: Next it was determined which of the three consequences of SMase enzymatic activity, namely, generation of choline-phosphate, generation of ceramide, and depletion of SM, is responsible for LDL aggregation. […] Incubating LDL with a 10-fold molar excess of choline-phosphate was performed.

C[N+](C)(C)CCOP(=O)(O)O [choline-phosphate]
turbidity of LDL: failed to increase the turbidity of LDL

Source: patent publication US6613322B2, “Method for treating a subject suffering from conditions associated with an extracellular zinc sphingomyelinase” (The Trustees of Columbia University in the City of New York, priority 1997, dated 2003)
